In the NIST ThermoML archive (doi:10.1021/je0342320):
± gives the expanded uncertainty stated by the source.

Assay: xn = mol fraction of the nth substance listed
Settings: Liquid, Vibrating tube method

CCCCCCCCCC [decane] + COC(=O)OC
mass density [kg/m3]
Settings | 100 kPa | 10000 kPa | 20000 kPa | 30000 kPa | 40000 kPa
308.15 K, x2 = 0.0676 | – | – | – | 748.49 ± 0.58 | –
308.15 K, x2 = 0.2303 | – | – | – | 774.52 ± 0.57 | –
308.15 K, x2 = 0.2934 | – | – | – | 786.53 ± 0.56 | –
308.15 K, x2 = 0.4055 | – | – | – | 810.51 ± 0.56 | –
308.15 K, x2 = 0.502 | – | – | 827.62 ± 0.53 | 835.23 ± 0.55 | –
308.15 K, x2 = 0.5476 | – | – | 840.77 ± 0.53 | 848.52 ± 0.55 | –
308.15 K, x2 = 0.5883 | – | – | 853.46 ± 0.53 | 861.27 ± 0.55 | –
308.15 K, x2 = 0.665 | – | – | 880.05 ± 0.54 | 888.01 ± 0.55 | –
308.15 K, x2 = 0.7101 | – | – | 898.05 ± 0.54 | 906.21 ± 0.55 | –
308.15 K, x2 = 0.7993 | – | – | 937.83 ± 0.56 | 946.02 ± 0.56 | –
308.15 K, x2 = 0.9062 | – | – | 998.48 ± 0.58 | 1006.83 ± 0.59 | –
313.15 K, x2 = 0.0676 | 722.58 ± 0.44 | 730.76 ± 0.48 | 738.28 ± 0.52 | 745.23 ± 0.58 | 751.65 ± 0.64
313.15 K, x2 = 0.2303 | 747.1 ± 0.45 | 755.75 ± 0.48 | 763.69 ± 0.52 | 770.99 ± 0.57 | 777.72 ± 0.61
313.15 K, x2 = 0.2934 | 758.66 ± 0.46 | 767.5 ± 0.49 | 775.54 ± 0.52 | 782.96 ± 0.56 | 789.79 ± 0.61
313.15 K, x2 = 0.4055 | 781.63 ± 0.47 | 790.74 ± 0.5 | 799.07 ± 0.52 | 806.72 ± 0.56 | 813.78 ± 0.59
313.15 K, x2 = 0.502 | 805.45 ± 0.48 | 814.81 ± 0.5 | 823.33 ± 0.53 | 831.19 ± 0.55 | 838.42 ± 0.58
313.15 K, x2 = 0.5476 | 818.21 ± 0.49 | 827.67 ± 0.51 | 836.31 ± 0.53 | 844.29 ± 0.55 | 851.66 ± 0.57
313.15 K, x2 = 0.665 | 856.63 ± 0.51 | 866.37 ± 0.52 | 875.3 ± 0.54 | 883.49 ± 0.55 | 891.08 ± 0.56
313.15 K, x2 = 0.7101 | 874 ± 0.52 | 883.94 ± 0.53 | 893.08 ± 0.54 | 901.47 ± 0.55 | 909.27 ± 0.56
313.15 K, x2 = 0.7993 | 913.46 ± 0.54 | 923.44 ± 0.55 | 932.63 ± 0.55 | 941.03 ± 0.56 | 948.81 ± 0.56
313.15 K, x2 = 0.9062 | 973.48 ± 0.57 | 983.52 ± 0.58 | 992.81 ± 0.58 | 1001.36 ± 0.58 | 1009.35 ± 0.59
318.15 K, x2 = 0.0676 | 718.68 ± 0.44 | 727.04 ± 0.48 | 734.75 ± 0.53 | 741.84 ± 0.58 | 748.36 ± 0.64
318.15 K, x2 = 0.2303 | 742.9 ± 0.45 | 751.73 ± 0.48 | 759.87 ± 0.52 | 767.35 ± 0.57 | 774.2 ± 0.62
318.15 K, x2 = 0.2934 | 754.31 ± 0.46 | 763.4 ± 0.49 | 771.65 ± 0.52 | 779.22 ± 0.57 | 786.19 ± 0.61
318.15 K, x2 = 0.4055 | 777.08 ± 0.47 | 786.45 ± 0.49 | 794.97 ± 0.53 | 802.8 ± 0.56 | 809.98 ± 0.59
318.15 K, x2 = 0.502 | 800.57 ± 0.48 | 810.24 ± 0.5 | 819.01 ± 0.53 | 827.05 ± 0.55 | 834.42 ± 0.58
318.15 K, x2 = 0.5476 | 813.18 ± 0.49 | 822.96 ± 0.51 | 831.86 ± 0.53 | 840 ± 0.55 | 847.53 ± 0.58
318.15 K, x2 = 0.665 | 851.25 ± 0.51 | 861.33 ± 0.52 | 870.52 ± 0.54 | 878.91 ± 0.55 | 886.65 ± 0.56
318.15 K, x2 = 0.7101 | 868.41 ± 0.52 | 878.62 ± 0.53 | 888.03 ± 0.54 | 896.64 ± 0.55 | 904.62 ± 0.56
318.15 K, x2 = 0.7993 | 907.56 ± 0.54 | 917.9 ± 0.55 | 927.38 ± 0.55 | 936.02 ± 0.56 | 944 ± 0.56
318.15 K, x2 = 0.9062 | 967.13 ± 0.57 | 977.56 ± 0.57 | 987.16 ± 0.58 | 995.97 ± 0.58 | 1004.15 ± 0.58
323.15 K, x2 = 0.0676 | 714.71 ± 0.44 | 723.36 ± 0.48 | 731.25 ± 0.53 | 738.46 ± 0.58 | 745.15 ± 0.64
323.15 K, x2 = 0.2303 | 738.81 ± 0.45 | 747.9 ± 0.48 | 756.2 ± 0.53 | 763.83 ± 0.57 | 770.85 ± 0.62
323.15 K, x2 = 0.2934 | 749.94 ± 0.46 | 759.3 ± 0.49 | 767.8 ± 0.53 | 775.53 ± 0.57 | 782.66 ± 0.61
323.15 K, x2 = 0.4055 | 772.41 ± 0.47 | 782.1 ± 0.49 | 790.9 ± 0.53 | 798.87 ± 0.56 | 806.24 ± 0.6
323.15 K, x2 = 0.502 | 795.68 ± 0.48 | 805.66 ± 0.5 | 814.72 ± 0.53 | 822.91 ± 0.56 | 830.5 ± 0.58
323.15 K, x2 = 0.5476 | 808.16 ± 0.49 | 818.26 ± 0.51 | 827.41 ± 0.53 | 835.74 ± 0.55 | 843.43 ± 0.58
323.15 K, x2 = 0.665 | 845.86 ± 0.51 | 856.25 ± 0.52 | 865.73 ± 0.54 | 874.34 ± 0.55 | 882.27 ± 0.57
323.15 K, x2 = 0.7101 | 862.69 ± 0.52 | 873.27 ± 0.53 | 882.95 ± 0.54 | 891.78 ± 0.55 | 899.97 ± 0.56
323.15 K, x2 = 0.7993 | 901.72 ± 0.54 | 912.4 ± 0.54 | 922.17 ± 0.55 | 931.08 ± 0.56 | 939.25 ± 0.56
323.15 K, x2 = 0.9062 | 960.79 ± 0.57 | 971.62 ± 0.57 | 981.53 ± 0.58 | 990.6 ± 0.58 | –
328.15 K, x2 = 0.0676 | 710.69 ± 0.44 | 719.66 ± 0.48 | 727.74 ± 0.53 | 735.12 ± 0.59 | 741.93 ± 0.65
328.15 K, x2 = 0.2303 | 734.47 ± 0.45 | 743.93 ± 0.48 | 752.49 ± 0.53 | 760.25 ± 0.57 | 767.41 ± 0.63
328.15 K, x2 = 0.2934 | 745.53 ± 0.46 | 755.2 ± 0.49 | 763.94 ± 0.53 | 771.85 ± 0.57 | 779.13 ± 0.62
328.15 K, x2 = 0.4055 | 767.74 ± 0.47 | 777.74 ± 0.49 | 786.78 ± 0.53 | 794.98 ± 0.56 | 802.5 ± 0.6
328.15 K, x2 = 0.502 | 790.73 ± 0.48 | 801.04 ± 0.5 | 810.36 ± 0.53 | 818.78 ± 0.56 | 826.54 ± 0.59
328.15 K, x2 = 0.5476 | 803.07 ± 0.49 | 813.56 ± 0.51 | 822.99 ± 0.53 | 831.5 ± 0.55 | 839.36 ± 0.58
328.15 K, x2 = 0.665 | 840.35 ± 0.51 | 851.18 ± 0.52 | 860.94 ± 0.54 | 869.79 ± 0.55 | 877.9 ± 0.57
328.15 K, x2 = 0.7101 | 857.01 ± 0.51 | 867.93 ± 0.53 | 877.85 ± 0.54 | 886.87 ± 0.55 | 895.22 ± 0.56
328.15 K, x2 = 0.7993 | 895.68 ± 0.53 | 906.86 ± 0.54 | 916.93 ± 0.55 | 926.1 ± 0.56 | 934.48 ± 0.56
328.15 K, x2 = 0.9062 | 954.3 ± 0.56 | 965.6 ± 0.57 | 975.83 ± 0.57 | 985.17 ± 0.58 | 993.79 ± 0.58
